In patent US20260217673A1, “NOVEL COMPOUND AS RON INHIBITOR” (LG CHEM, LTD., priority 2022, published 2026):

Legend:
RON = RON (Homo sapiens, UniProt Q04912); assay: RON inhibitory activity, TR-FRET kinase assay; type: biochemical; conditions: RON protein, ULight-labeled Poly GT substrate
Description: To measure the RON inhibitory activity of the example compounds, the IC50 of the compounds was measured using time-resolved fluorescence energy transfer (TR-FRET).
Specifically, the compound was prepared at a concentration of 1 mM with 100% DMSO and serially diluted 10 times through 3-fold dilution. 2 μl of the serially diluted compound was added to a 96-well plate containing 48 μl of 1× kinase reaction buffer (50 mM HEPES (pH 7.4), 0.01% Tween-20, 5 mM DTT, 0.5 mM Na3VO4, 2 mM EGTA, 10 mM MgCl2).
The RON protein was diluted with a RON storage buffer (50 mM Tris-HCl (pH 7.5), 150 mM NaCl, 0.5 mM EDTA, 0.02% Triton X-100) to a concentration of 49.3 nM, and then diluted again with 1× kinase reaction buffer to be 0.4 nM. As a substrate cocktail, a RON-specific substrate mixture (40 μM ULight-labeled Poly GT, 100 nM ATP) was prepared at a concentration twice the final reaction concentration.
(§1) After that, a 384-well plate was prepared, and 2.5 μl of the diluted example compound was added to each of the experimental group wells, and 2.5 μl of a 4% DMSO solution was dispensed into high control wells and low control wells.
(§2) Afterward, 2.5 μl of 0.4 nM RON was dispensed into the high control wells and the experimental group wells, and 2.5 μl of 1× kinase reaction buffer was added to the low control wells, and after centrifugation at 1000 RPM for 40 seconds at room temperature, the mixtures were incubated at room temperature for 20 to 30 minutes. Then, 5 μl of the substrate cocktail (2×) was dispensed into all wells, and after centrifugation at 1000 RPM for 40 seconds at room temperature, the mixtures were incubated at room temperature for 60 minutes. Afterward, 5 μl of 30 mM EDTA was added to all wells to terminate the reaction, and the mixtures were incubated again at room temperature for 5 minutes. Thereafter, 5 μl of 4× phosphotyrosine antibodies (Perkin Elmer) containing europium was added to all wells and incubated at room temperature for 60 minutes. After the incubation, the 384-well-plate was read with a Vison plate reader. At this time, the excitation wavelength was 340 nm, and the emission wavelengths were 620 nm and 665 nm. The IC50 value of each example compound was derived using the GraphPd Prism7 program.

cMET = cMET (Homo sapiens, UniProt P08581); assay: MET (cMET) enzyme inhibitory activity, TR-FRET kinase assay; type: biochemical; conditions: cMET protein, TK peptide substrate
Description: In addition, to measure cMET enzyme activity inhibition, an experiment was performed by the same method as the experiment for measuring the RON enzyme activity inhibition.
Specifically, the compound was prepared at a concentration of 1 mM with 100% DMSO and serially diluted 10 times through 3-fold dilution. 2 μl of the serially diluted compound was added to a 96-well plate containing 48 μl 1× kinase reaction buffer (50 mM HEPES (pH 7.4), 0.05% BSA, 0.005% Tween-20, 1 mM DTT, 0.5 mM MnCl2, 20 mM MgCl2).
The cMET protein was diluted in a cMET storage buffer (50 mM Tris-HCl (pH 7.5), 150 mM NaCl, 0.05% Brij35, 1 mM DTT, 10% glycerol) to a concentration of 263 nM, and then diluted again with 1× kinase reaction buffer to 2 nM. As a substrate cocktail, a MET-specific substrate mixture (5 μM TK peptide, 10 mM ATP) was prepared at a concentration twice the final reaction concentration.
as §1
as §2, with “μl of 2 nM cMET” for “μl of 0.4 nM RON”, “2 nM cMET was dispensed” for “0.4 nM RON was dispensed”, “was dispensed to the high” for “was dispensed into the high”, “μl of 90 mM EDTA” for “μl of 30 mM EDTA”

Sequence of RON (Q04912 25-1400, species assumed): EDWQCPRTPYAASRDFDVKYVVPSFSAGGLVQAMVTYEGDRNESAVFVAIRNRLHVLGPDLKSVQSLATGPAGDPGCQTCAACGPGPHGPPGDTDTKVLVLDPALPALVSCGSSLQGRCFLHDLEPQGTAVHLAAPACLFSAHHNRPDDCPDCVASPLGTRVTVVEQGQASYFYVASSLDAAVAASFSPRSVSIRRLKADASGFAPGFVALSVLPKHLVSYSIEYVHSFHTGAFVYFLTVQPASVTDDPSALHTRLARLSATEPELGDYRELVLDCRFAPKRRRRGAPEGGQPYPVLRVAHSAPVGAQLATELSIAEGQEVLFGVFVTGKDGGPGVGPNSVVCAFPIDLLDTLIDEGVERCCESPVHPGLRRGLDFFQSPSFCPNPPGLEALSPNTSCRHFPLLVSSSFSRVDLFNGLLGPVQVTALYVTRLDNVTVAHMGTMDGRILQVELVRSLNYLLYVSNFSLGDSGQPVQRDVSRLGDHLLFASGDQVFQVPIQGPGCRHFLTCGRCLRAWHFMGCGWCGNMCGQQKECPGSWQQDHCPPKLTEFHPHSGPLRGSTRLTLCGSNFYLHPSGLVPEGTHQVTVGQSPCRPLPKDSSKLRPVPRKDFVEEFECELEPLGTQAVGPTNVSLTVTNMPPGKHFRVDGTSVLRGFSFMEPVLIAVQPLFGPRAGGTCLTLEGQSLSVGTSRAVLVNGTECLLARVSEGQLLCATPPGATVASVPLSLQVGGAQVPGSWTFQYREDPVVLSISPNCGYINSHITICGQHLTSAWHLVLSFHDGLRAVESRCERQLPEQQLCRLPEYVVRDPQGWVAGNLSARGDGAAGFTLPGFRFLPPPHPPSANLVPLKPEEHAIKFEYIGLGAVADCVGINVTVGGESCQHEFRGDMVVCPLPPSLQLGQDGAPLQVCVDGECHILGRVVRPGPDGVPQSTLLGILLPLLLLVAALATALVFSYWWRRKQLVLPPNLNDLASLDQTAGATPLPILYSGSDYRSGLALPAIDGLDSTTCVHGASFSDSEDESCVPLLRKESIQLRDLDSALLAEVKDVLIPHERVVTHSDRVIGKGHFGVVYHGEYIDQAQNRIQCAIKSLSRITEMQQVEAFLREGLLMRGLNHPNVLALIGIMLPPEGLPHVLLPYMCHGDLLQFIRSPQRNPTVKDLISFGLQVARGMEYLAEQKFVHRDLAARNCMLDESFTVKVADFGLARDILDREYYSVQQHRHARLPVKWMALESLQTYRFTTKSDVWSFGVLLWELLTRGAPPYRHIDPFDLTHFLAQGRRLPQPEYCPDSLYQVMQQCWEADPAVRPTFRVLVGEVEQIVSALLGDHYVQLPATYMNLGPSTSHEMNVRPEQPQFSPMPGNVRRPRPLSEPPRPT
Sequence of cMET (P08581 25-1390): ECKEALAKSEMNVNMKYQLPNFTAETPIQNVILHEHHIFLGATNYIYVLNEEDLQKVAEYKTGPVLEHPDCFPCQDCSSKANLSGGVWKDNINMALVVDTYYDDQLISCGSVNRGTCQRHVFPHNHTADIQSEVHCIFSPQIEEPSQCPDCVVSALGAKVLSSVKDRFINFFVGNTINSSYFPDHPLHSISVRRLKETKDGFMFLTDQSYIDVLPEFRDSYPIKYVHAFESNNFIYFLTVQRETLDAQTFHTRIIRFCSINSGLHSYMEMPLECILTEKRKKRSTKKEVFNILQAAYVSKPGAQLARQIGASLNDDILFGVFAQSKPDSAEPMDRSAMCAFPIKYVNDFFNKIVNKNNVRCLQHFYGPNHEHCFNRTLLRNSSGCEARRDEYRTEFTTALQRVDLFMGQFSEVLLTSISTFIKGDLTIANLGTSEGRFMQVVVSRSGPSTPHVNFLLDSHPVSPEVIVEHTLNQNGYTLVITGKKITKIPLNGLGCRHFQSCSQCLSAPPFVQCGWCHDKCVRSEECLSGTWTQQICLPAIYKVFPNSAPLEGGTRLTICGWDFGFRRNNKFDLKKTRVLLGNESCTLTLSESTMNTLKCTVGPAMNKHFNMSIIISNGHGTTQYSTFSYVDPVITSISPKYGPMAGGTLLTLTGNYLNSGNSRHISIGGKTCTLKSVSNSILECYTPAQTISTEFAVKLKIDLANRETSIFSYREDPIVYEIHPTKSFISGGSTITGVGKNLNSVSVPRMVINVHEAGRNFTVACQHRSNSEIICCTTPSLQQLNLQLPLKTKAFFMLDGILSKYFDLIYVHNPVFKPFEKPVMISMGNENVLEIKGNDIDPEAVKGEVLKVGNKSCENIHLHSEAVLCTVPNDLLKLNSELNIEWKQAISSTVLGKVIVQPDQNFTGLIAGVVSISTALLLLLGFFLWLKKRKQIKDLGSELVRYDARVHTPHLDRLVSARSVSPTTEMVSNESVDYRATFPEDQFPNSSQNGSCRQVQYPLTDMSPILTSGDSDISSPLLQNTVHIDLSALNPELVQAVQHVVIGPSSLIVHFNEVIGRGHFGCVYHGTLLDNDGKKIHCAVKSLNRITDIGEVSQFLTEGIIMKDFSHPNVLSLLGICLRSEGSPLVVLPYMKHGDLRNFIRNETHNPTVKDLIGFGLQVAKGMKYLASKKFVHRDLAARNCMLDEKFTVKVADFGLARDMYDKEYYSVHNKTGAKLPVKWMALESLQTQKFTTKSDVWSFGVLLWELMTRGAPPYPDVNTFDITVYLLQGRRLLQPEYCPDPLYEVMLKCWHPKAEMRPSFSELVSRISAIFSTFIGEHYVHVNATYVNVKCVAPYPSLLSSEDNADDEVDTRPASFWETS

IC50 (RON)	IC50 (cMET)	SMILES
< 50 nM	500 to 5000 nM	N#Cc1c(Oc2c(F)cc(NC(=O)c3cnn(-c4ccccn4)c3C(F)(F)F)cc2F)ccnc1N [Example 32, N-(4-((2-amino-3-cyanopyridin-4-yl)oxy)-3,5-difluorophenyl)-1-(pyridin-2-yl)-5-(trifluoromethyl)-1H-pyrazole-4-carboxamide]
< 50 nM	50 to 500 nM	N#Cc1c(Oc2c(F)cc(NC(=O)c3cnn(-c4ncccc4F)c3C(F)(F)F)cc2F)ccnc1N [Example 33, N-(4-((2-amino-3-cyanopyridin-4-yl)oxy)-3,5-difluorophenyl)-1-(3-fluoropyridin-2-yl)-5-(trifluoromethyl)-1H-pyrazole-4-carboxamide]
< 50 nM	50 to 500 nM	N#Cc1c(Oc2c(F)cc(NC(=O)c3cnn(-c4ncccc4Cl)c3C(F)(F)F)cc2F)ccnc1N [Example 34, N-(4-((2-amino-3-cyanopyridin-4-yl)oxy)-3,5-difluorophenyl)-1-(3-chloropyridin-2-yl)-5-(trifluoromethyl)-1H-pyrazole-4-carboxamide]
< 50 nM	500 to 5000 nM	N#Cc1c(Oc2c(F)cc(NC(=O)c3cnn(-c4ncccn4)c3C(F)(F)F)cc2F)ccnc1N [Example 35, N-(4-((2-amino-3-cyanopyridin-4-yl)oxy)-3,5-difluorophenyl)-1-(pyrimidin-2-yl)-5-(trifluoromethyl)-1H-pyrazole-4-carboxamide]
50 to 500 nM	500 to 5000 nM	N#Cc1c(Oc2c(F)cc(NC(=O)c3cnn(-c4cccnn4)c3C(F)(F)F)cc2F)ccnc1N [Example 36, N-(4-((2-amino-3-cyanopyridin-4-yl)oxy)-3,5-difluorophenyl)-1-(pyridazin-3-yl)-5-(trifluoromethyl)-1H-pyrazole-4-carboxamide]
< 50 nM	500 to 5000 nM	Nc1nccc(Oc2c(F)cc(NC(=O)c3cnn(-c4ccccc4)c3C(F)(F)F)cc2F)c1C1CC1 [Example 37, N-(4-((2-amino-3-cyclopropylpyridin-4-yl)oxy)-3,5-difluorophenyl)-1-phenyl-5-(trifluoromethyl)-1H-pyrazole-4-carboxamide]
< 50 nM	500 to 5000 nM	Nc1nccc(Oc2c(F)cc(NC(=O)c3cnn(-c4ncccc4F)c3C(F)(F)F)cc2F)c1C1CC1 [Example 38, N-(4-((2-amino-3-cyclopropylpyridin-4-yl)oxy)-3,5-difluorophenyl)-1-(3-fluoropyridin-2-yl)-5-(trifluoromethyl)-1H-pyrazole-4-carboxamide]
< 50 nM	500 to 5000 nM	Nc1nccc(Oc2c(F)cc(NC(=O)c3cnn(-c4ncccc4Cl)c3C(F)(F)F)cc2F)c1C1CC1 [Example 39, N-(4-((2-amino-3-cyclopropylpyridin-4-yl)oxy)-3,5-difluorophenyl)-1-(3-chloropyridin-2-yl)-5-(trifluoromethyl)-1H-pyrazole-4-carboxamide]
< 50 nM	500 to 5000 nM	Nc1nccc(Oc2c(F)cc(NC(=O)c3cnn(-c4ccccn4)c3C(F)(F)F)cc2F)c1C1CC1 [Example 40, N-(4-((2-amino-3-cyclopropylpyridin-4-yl)oxy)-3,5-difluorophenyl)-1-(pyridin-2-yl)-5-(trifluoromethyl)-1H-pyrazole-4-carboxamide]
< 50 nM	500 to 5000 nM	Nc1nccc(Oc2c(F)cc(NC(=O)c3cnn(-c4ncccn4)c3C(F)(F)F)cc2F)c1C1CC1 [Example 41, N-(4-((2-amino-3-cyclopropylpyridin-4-yl)oxy)-3,5-difluorophenyl)-1-(pyrimidin-2-yl)-5-(trifluoromethyl)-1H-pyrazole-4-carboxamide]
< 50 nM	500 to 5000 nM	Nc1nccc(Oc2c(F)cc(NC(=O)c3cnn(-c4cccnn4)c3C(F)(F)F)cc2F)c1C1CC1 [Example 42, N-(4-((2-amino-3-cyclopropylpyridin-4-yl)oxy)-3,5-difluorophenyl)-1-(pyridazin-3-yl)-5-(trifluoromethyl)-1H-pyrazole-4-carboxamide]
< 50 nM	500 to 5000 nM	CC(C)c1c(Oc2c(F)cc(NC(=O)c3cnn(-c4ccccc4)c3C(F)(F)F)cc2F)ccnc1N [Example 43, N-(4-((2-amino-3-isopropylpyridin-4-yl)oxy)-3,5-difluorophenyl)-1-phenyl-5-(trifluoromethyl)-1H-pyrazole-4-carboxamide]
< 50 nM	500 to 5000 nM	CC(C)c1c(Oc2c(F)cc(NC(=O)c3cnn(-c4ncccc4Cl)c3C(F)(F)F)cc2F)ccnc1N [Example 44, N-(4-((2-amino-3-isopropylpyridin-4-yl)oxy)-3,5-difluorophenyl)-1-(3-chloropyridin-2-yl)-5-(trifluoromethyl)-1H-pyrazole-4-carboxamide]
< 50 nM	500 to 5000 nM	CC(C)c1c(Oc2c(F)cc(NC(=O)c3cnn(-c4ncccn4)c3C(F)(F)F)cc2F)ccnc1N [Example 45, N-(4-((2-amino-3-isopropylpyridin-4-yl)oxy)-3,5-difluorophenyl)-1-(pyrimidin-2-yl)-5-(trifluoromethyl)-1H-pyrazole-4-carboxamide]
< 50 nM	500 to 5000 nM	CC(C)c1c(Oc2c(F)cc(NC(=O)c3cnn(-c4ncccc4F)c3C(F)(F)F)cc2F)ccnc1N [Example 46, N-(4-((2-amino-3-isopropylpyridin-4-yl)oxy)-3,5-difluorophenyl)-1-(3-fluoropyridin-2-yl)-5-(trifluoromethyl)-1H-pyrazole-4-carboxamide]
< 50 nM	500 to 5000 nM	Nc1nccc(Oc2c(F)cc(NC(=O)c3cnn(-c4ncccc4F)c3C(F)(F)F)cc2F)c1CN1CCOCC1 [Example 47, N-(4-((2-amino-3-(morpholinomethyl)pyridin-4-yl)oxy)-3,5-difluorophenyl)-1-(3-fluoropyridine-2-yl)-5-(trifluoromethyl)-1H-pyrazole-4-carboxamide]
< 50 nM	> 5000 nM	Nc1nccc(Oc2c(F)cc(NC(=O)c3cnn(-c4ncccn4)c3C(F)(F)F)cc2F)c1CN1CCOCC1 [Example 48, N-(4-((2-amino-3-(morpholinomethyl)pyridin-4-yl)oxy)-3,5-difluorophenyl)-1-(pyrimidin-2-yl)-5-(trifluoromethyl)-1H-pyrazole-4-carboxamide]
< 50 nM	500 to 5000 nM	Nc1nccc(Oc2c(F)cc(NC(=O)c3cnn(-c4ncccc4Cl)c3C(F)(F)F)cc2F)c1CN1CCOCC1 [Example 49, N-(4-((2-amino-3-(morpholinomethyl)pyridin-4-yl)oxy)-3,5-difluorophenyl)-1-(3-chloropyridin-2-yl)-5-(trifluoromethyl)-1H-pyrazole-4-carboxamide]
< 50 nM	500 to 5000 nM	Nc1nccc(Oc2c(F)cc(NC(=O)c3cnn(-c4ccccc4)c3C(F)(F)F)cc2F)c1CN1CCOCC1 [Example 50, N-(4-((2-amino-3-(morpholinomethyl)pyridin-4-yl)oxy)-3,5-difluorophenyl)-1-phenyl-5-(trifluoromethyl)-1H-pyrazole-4-carboxamide]
